Experimental data published in US20230049231A1 (priority 2019, published 2023).

Assays:
Kv1.3 potassium channel = molecular target: T1, Kv1.3 potassium channel (Homo sapiens, UniProt P22001); test: Kv1.3 potassium channel blocker activity, automated whole-cell patch clamp (Patchliner); assay type: cell-based
T1 construct: expressed in transfected cells
Protocol: This assay is used to evaluate the disclosed compounds' activities as Kv1.3 potassium channel blockers.
CHO-K1 cells stably expressing Kv1.3 were grown in DMEM containing 10% heat-inactivated FBS, 1 mM sodium pyruvate, 2 mM L-glutamine and G418 (500 μg/ml). Cells were grown in culture flasks at 37° C. in a 5% CO2-humidified incubator.
(§1) The cells were bathed in an extracellular solution containing 140 mM NaCl, 4 mM KCl, 2 mM CaCl2), 1 mM MgCl2, 5 mM glucose, and 10 mM HEPES; pH adjusted to 7.4 with NaOH; 295-305 mOsm. The internal solution contained 50 mM KCl, 10 mM NaCl, 60 mM KF, 20 mM EGTA, and 10 mM HEPES; pH adjusted to 7.2 with KOH; 285 mOsm. All compounds were dissolved in DMSO at 30 mM. Compound stock solutions were freshly diluted with external solution to concentrations of 30 nM, 100 nM, 300 nM, 1 μM, 3 μM, 10 μM, 30 μM and 100 μM. The highest content of DMSO (0.3%) was present in 100 μM.
The currents were evoked by applying 100 ms depolarizing pulses from −90 mV (holding potential) to +40 mV were applied with 0.1 Hz frequency. Control (compound-free) and compound pulse trains for each compound concentration applied contained 20 pulses.
10-second breaks were used between pulse trains (see Table 2 below).
Whole-cell current recordings and compound application were enabled by means of an automated patch clamp platform Patchliner (Nanion Technologies GmbH). EPC 10 patch clamp amplifier (HEKA Elektronik Dr. Schulze GmbH) along with Patchmaster software (HEKA Elektronik Dr. Schulze GmbH) was used for data acquisition. Data were sampled at 10 kHz without filtering. Passive leak currents were subtracted online using a P/4 procedure (HEKA Elektronik Dr. Schulze GmbH). Increasing compound concentrations were applied consecutively to the same cell without washouts in between. Total compound incubation time before the next pulse train was not longer than 10 seconds. Peak current inhibition was observed during compound equilibration.
(§2) AUC and peak values were obtained with Patchmaster (HEKA Elektronik Dr. Schulze GmbH). To determine IC50, the last single pulse in the pulse train corresponding to a given compound concentration was used. Obtained AUC and peak values in the presence of compound were normalized to control values in the absence of compound. Using Origin (OridinLab), IC50 was derived from data fit to Hill equation: Icompound/Icontrol=(100−A)/(1+([compound]/IC50)nH)+A, where IC50 value is the concentration at which current inhibition is half-maximal, [compound] is the applied compound concentration, A is the fraction of current that is not blocked and nH is the Hill coefficient.

hERG channel = molecular target: T2, hERG channel (Homo sapiens, UniProt Q12809); test: hERG electrophysiology, automated whole-cell patch clamp (Patchliner); assay type: cell-based
T2 construct: expressed in transfected cells
T2 sequence (Q12809 whole entry): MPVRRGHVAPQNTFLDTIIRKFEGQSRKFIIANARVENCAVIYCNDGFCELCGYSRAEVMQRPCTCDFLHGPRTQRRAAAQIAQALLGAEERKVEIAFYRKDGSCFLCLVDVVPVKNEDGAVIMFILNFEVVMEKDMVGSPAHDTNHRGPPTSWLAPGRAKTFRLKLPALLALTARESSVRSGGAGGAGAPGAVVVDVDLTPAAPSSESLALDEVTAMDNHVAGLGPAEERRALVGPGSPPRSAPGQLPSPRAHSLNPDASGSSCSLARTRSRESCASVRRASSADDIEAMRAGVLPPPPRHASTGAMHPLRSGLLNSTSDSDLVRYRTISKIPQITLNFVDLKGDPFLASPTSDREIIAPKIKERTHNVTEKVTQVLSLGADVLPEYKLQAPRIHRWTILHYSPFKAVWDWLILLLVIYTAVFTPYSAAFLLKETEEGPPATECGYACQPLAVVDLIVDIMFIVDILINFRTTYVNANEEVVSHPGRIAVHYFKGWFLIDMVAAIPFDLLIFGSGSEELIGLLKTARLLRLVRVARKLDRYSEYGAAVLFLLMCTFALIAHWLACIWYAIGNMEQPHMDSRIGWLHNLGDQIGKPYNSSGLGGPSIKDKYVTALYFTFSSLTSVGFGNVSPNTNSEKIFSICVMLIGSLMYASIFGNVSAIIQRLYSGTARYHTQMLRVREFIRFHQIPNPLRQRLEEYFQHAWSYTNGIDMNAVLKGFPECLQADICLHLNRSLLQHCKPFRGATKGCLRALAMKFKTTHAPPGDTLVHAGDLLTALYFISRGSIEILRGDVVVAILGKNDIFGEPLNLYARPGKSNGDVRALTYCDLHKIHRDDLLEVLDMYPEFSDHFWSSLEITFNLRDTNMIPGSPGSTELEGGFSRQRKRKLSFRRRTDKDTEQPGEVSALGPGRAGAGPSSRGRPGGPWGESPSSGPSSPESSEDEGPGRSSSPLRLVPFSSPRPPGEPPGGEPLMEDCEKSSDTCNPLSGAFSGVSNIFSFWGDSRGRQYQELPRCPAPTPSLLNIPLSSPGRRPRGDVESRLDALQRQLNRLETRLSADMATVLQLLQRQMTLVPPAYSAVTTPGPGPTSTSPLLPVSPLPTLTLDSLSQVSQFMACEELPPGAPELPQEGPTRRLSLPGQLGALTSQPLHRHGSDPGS
Protocol: This assay is used to evaluate the disclosed compounds' inhibition activities against the hERG channel.
CHO-K1 cells stably expressing hERG were grown in Ham's F-12 Medium with glutamine containing 10% heat-inactivated FBS, 1% penicillin/streptomycin, hygromycin (100 μg/ml) and G418 (100 μg/ml). Cells were grown in culture flasks at 37° C. in a 5% CO2-humidified incubator.
as §1
The voltage protocol (see Table 3) was designed to simulate voltage changes during a cardiac action potential with a 300 ms depolarization to +20 mV (analogous to the plateau phase of the cardiac action potential), a repolarization for 300 ms to −50 mV (inducing a tail current) and a final step to the holding potential of −80 mV. The pulse frequency was 0.3 Hz. Control (compound-free) and compound pulse trains for each compound concentration applied contained 70 pulses.
Whole-cell current recordings and compound application were enabled by means of an automated patch clamp platform Patchliner (Nanion). EPC 10 patch clamp amplifier (HEKA) along with Patchmaster software (HEKA Elektronik Dr. Schulze GmbH) was used for data acquisition. Data were sampled at 10 kHz without filtering. Increasing compound concentrations were applied consecutively to the same cell without washouts in between.
as §2, with “PEAK” for “peak”, “IC50” for “IC50,”, “Icompound/Icontrol=(100-A)/(1+([compound]/IC50)nH)+A,” for “Icompound/Icontrol=(100−A)/(1+([compound]/IC50)nH)+A,”, “IC50” for “IC50 value”

[1] = CHO-K1 cells stably expressing Kv1.3, 100 ms pulses from -90 mV to +40 mV, 0.1 Hz
[2] = CHO-K1 cells stably expressing hERG, +20 mV 300 ms, -50 mV 300 ms tail current, 0.3 Hz
[3] = Kv1.3 potassium channel, whole-cell patch clamp
[4] = hERG channel, whole-cell patch clamp

T1 sequence (P22001 whole entry): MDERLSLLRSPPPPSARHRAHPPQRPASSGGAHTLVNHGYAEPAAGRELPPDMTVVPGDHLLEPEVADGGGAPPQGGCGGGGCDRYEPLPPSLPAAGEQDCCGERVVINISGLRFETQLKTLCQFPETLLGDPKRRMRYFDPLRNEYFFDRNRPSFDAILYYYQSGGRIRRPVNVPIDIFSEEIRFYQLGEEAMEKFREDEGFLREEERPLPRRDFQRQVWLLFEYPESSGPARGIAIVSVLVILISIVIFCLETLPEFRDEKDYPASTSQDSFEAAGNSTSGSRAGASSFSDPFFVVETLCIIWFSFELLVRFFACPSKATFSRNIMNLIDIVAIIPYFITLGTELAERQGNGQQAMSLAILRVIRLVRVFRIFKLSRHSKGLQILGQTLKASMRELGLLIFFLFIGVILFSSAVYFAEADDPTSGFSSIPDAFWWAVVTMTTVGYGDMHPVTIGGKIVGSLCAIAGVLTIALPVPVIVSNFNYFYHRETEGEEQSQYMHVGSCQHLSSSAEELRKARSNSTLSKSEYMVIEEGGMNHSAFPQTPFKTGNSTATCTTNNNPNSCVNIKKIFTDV

SMILES | IC50 (Kv1.3 potassium channel; [3]) [µM] | also measured
O=C([C@H](O)CO)N1CC(=O)N2CC[C@H](c3c(O)ccc(Cl)c3Cl)C[C@@H]2C1 (relative stereo) [Compound 10, (8S,9aR)-rel-8-(2,3-dichloro-6-hydroxyphenyl)-2-[(2R)-2,3-dihydroxypropanoyl]-hexahydro-1H-pyrido[1,2-a]pyrazin-4-one] | – | IC50 (Kv1.3 potassium channel; [1]): < 1 µM; IC50 (hERG channel; [2]): > 30 µM
O=C1[C@@H](CO)NC[C@@H]2C[C@H](c3c(O)ccc(Cl)c3Cl)CCN12 (relative stereo) [Compound 28, (8R,9aS)-rel-8-(2,3-dichloro-6-hydroxyphenyl)-3-((3R)-hydroxymethyl-octahydropyrido[1,2-a]pyrazin-4-one trifluoroacetic acid] | – | IC50 (Kv1.3 potassium channel; [1]): < 1 µM; IC50 (hERG channel; [2]): > 30 µM
O=C(C1CNC1)N1CC(=O)N2CC[C@@H](c3c(O)ccc(Cl)c3Cl)C[C@H]2C1 (relative stereo) [Compound 32, (8S,9aR)-rel-2-(azetidine-3-carbonyl)-8-(2,3-dichloro-6-hydroxyphenyl)-hexahydro-1H-pyrido[1,2-a]pyrazin-4-one] | – | IC50 (Kv1.3 potassium channel; [1]): < 1 µM; IC50 (hERG channel; [2]): > 30 µM
O=C1CN([C@H]2C[C@H](O)C2)C[C@@H]2C[C@H](c3c(O)ccc(Cl)c3Cl)CN12 (relative stereo) [Compound 125, (7R,8aS)-7-(2,3-dichloro-6-hydroxyphenyl)-2-[(1r,3S)-rel-3-hydroxycyclobutyl] hexahydropyrrolo [1,2-a]pyrazin-4-one] | < 1 | IC50 (hERG channel; [4]): > 30 µM
O=C1CN([C@H]2C[C@@H](O)C2)C[C@@H]2C[C@H](c3c(O)ccc(Cl)c3Cl)CN12 (relative stereo) [Compound 126, (7R,8aS)-7-(2,3-dichloro-6-hydroxyphenyl)-2-[(1s,3R)-rel-3-hydroxycyclobutyl] hexahydropyrrolo [1,2-a]pyrazin-4-one] | < 1 | IC50 (hERG channel; [4]): > 30 µM
O=C1CN([C@H]2C[C@@H](O)[C@@H](O)C2)C[C@@H]2C[C@H](c3c(O)ccc(Cl)c3Cl)CN12 (relative stereo) [Compound 130, (7R,8aS)-7-(2,3-dichloro-6-hydroxyphenyl)-2-[(1R,3R,4S)-rel-3,4-dihydroxycyclopentyl]-hexahydropyrrolo [1,2-a]pyrazin-4-one] | < 1 | IC50 (hERG channel; [4]): > 30 µM
O=C1CN([C@@H]2C[C@@H](O)[C@@H](O)C2)C[C@@H]2C[C@H](c3c(O)ccc(Cl)c3Cl)CN12 (relative stereo) [Compound 131, (7R,8aS)-7-(2,3-dichloro-6-hydroxyphenyl)-2-[(1S,3R,4S)-rel-3,4-dihydroxycyclopentyl]-hexahydropyrrolo [1,2-a]pyrazin-4-one] | < 1 | IC50 (hERG channel; [4]): > 30 µM
O=C(CO)N1CC[C@@H]2C[C@H](c3c(O)ccc(Cl)c3Cl)CN2C(=O)C1 [Compound 90, (8R,9aS)-8-(2,3-dichloro-6-hydroxyphenyl)-3-(2-hydroxyacetyl)-hexahydro-1H-pyrrolo[1,2-d][1,4]diazepin-5-one] | < 1 | –
CCN(CC)C(=O)N1CC(=O)N2C[C@@H](c3c(O)ccc(Cl)c3Cl)C[C@H]2C1 [Compound 99, (7R,8aS)-7-(2,3-dichloro-6-hydroxyphenyl)-N,N-diethyl-4-oxo-hexahydropyrro[1,2-a]pyrazine-2-carboxamide] | < 1 | –
O=C1NCCC1N1CC(=O)N2C[C@@H](c3c(O)ccc(Cl)c3Cl)C[C@H]2C1 (stereo partly drawn) [Compound 109, 3-[(7R,8aS)-7-(2,3-dichloro-6-hydroxyphenyl)-4-oxo-hexahydropyrrolo [1,2-a]pyrazin-2-yl]pyrrolidin-2-one] | < 1 | –
C=CCN1CC(=O)N2C[C@@H](c3c(O)ccc(Cl)c3Cl)C[C@H]2C1 [Compound 113, (7R,8aS)-7-(2,3-dichloro-6-hydroxyphenyl)-2-(prop-2-en-1-yl)-hexahydropyrrolo [l,2-a]pyrazin-4-one] | < 1 | –
O=C1CN(c2ccc(CO)cn2)C[C@@H]2C[C@H](c3c(O)ccc(Cl)c3Cl)CN12 [Compound 168, (7R,8aS)-7-(2,3-dichloro-6-hydroxyphenyl)-2-[5-(hydroxymethyl)pyridin-2-yl]-hexahydropyrrolo[1,2-a]pyrazin-4-one] | < 1 | –
Nc1cnc(N2CC(=O)N3C[C@@H](c4c(O)ccc(Cl)c4Cl)C[C@H]3C2)nc1 [Compound 170, (7R,8aS)-2-(5-aminopyrimidin-2-yl)-7-(2,3-dichloro-6-hydroxyphenyl)-hexahydropyrrolo[1,2-a]pyrazin-4-one] | < 1 | –
O=C1CN(c2ncccc2CO)C[C@@H]2C[C@H](c3c(O)ccc(Cl)c3Cl)CN12 [Compound 174] | < 10 | –
O=C1CCCN1CC1OC[C@@H]2C[C@H](c3c(O)ccc(Cl)c3Cl)CCN2C1=O (stereo partly drawn) [Compound 184, 1-[[(8R,9aS)-8-(2,3-dichloro-6-hydroxyphenyl)-4-oxo-hexahydro-1H-pyrido[2,1-c][1,4]oxazin-3-yl]methyl]pyrrolidin-2-one] | < 10 | –
CC(=O)NCC1OC[C@@H]2C[C@H](c3c(O)ccc(Cl)c3Cl)CCN2C1=O (stereo partly drawn) [Compound 186, N-[[(8R,9aS)-8-(2,3-dichloro-6-hydroxyphenyl)-4-oxo-hexahydro-1H-pyrido[2,1-c][1,4]oxazin-3-yl]methyl]acetamide] | < 1 | –
O=C(O)C1CC(=O)N2C[C@@H](c3c(O)ccc(Cl)c3Cl)C[C@H]2C1 (stereo partly drawn) [Compound 229, (2R,8aS)-2-(2,3-dichloro-6-hydroxyphenyl)-5-oxo-hexahydro-1H-indolizine-7-carboxylic acid] | < 1 | –
O=C1CC[C@@H]2C[C@H](c3c(O)ccc(Cl)c3Cl)CN12 [Compound 244, (6R,7aR)-6-(2,3-dichloro-6-hydroxyphenyl)-hexahydropyrrolizin-3-one] | < 1 | –
O=C1C(CO)C[C@@H]2C[C@H](c3c(O)ccc(Cl)c3Cl)CN12 (stereo partly drawn) [Compound 247, (6R,7aS)-6-(2,3-dichloro-6-hydroxyphenyl)-2-(hydroxymethyl)-hexahydropyrrolizin-3-one] | < 1 | –
O=C1OC[C@@H]2C[C@H](c3c(O)ccc(Cl)c3Cl)CCN12 [Compound 252, (7R,8aS)-7-(2,3-dichloro-6-hydroxyphenyl)-hexahydro-[1,3]oxazolo[3,4-a]pyridin-3-one] | < 1 | –
O=C1N(CCO)C[C@@H]2C[C@H](c3c(O)ccc(Cl)c3Cl)CN12 [Compound 290, (6R,7aS)-6-(2,3-dichloro-6-hydroxyphenyl)-2-(2-hydroxyethyl)hexahydro-3H-pyrrolo[1,2-c]imidazol-3-one] | < 10 | –
CN1C[C@@H]2C[C@H](c3c(O)ccc(Cl)c3Cl)CN2C1=O [Compound 291, (6R,7aS)-6-(2,3-dichloro-6-hydroxyphenyl)-2-methyl-tetrahydro-1H-pyrrolo[1,2-c]imidazol-3-one] | < 10 | –
